Molecules are shown by their SMILES.

The target of this experiment is T1, human orexin-2 receptor (OX2R) (Homo sapiens, UniProt O43614).
T1 construct: expressed in transfected cells
T1 sequence (O43614 1-444): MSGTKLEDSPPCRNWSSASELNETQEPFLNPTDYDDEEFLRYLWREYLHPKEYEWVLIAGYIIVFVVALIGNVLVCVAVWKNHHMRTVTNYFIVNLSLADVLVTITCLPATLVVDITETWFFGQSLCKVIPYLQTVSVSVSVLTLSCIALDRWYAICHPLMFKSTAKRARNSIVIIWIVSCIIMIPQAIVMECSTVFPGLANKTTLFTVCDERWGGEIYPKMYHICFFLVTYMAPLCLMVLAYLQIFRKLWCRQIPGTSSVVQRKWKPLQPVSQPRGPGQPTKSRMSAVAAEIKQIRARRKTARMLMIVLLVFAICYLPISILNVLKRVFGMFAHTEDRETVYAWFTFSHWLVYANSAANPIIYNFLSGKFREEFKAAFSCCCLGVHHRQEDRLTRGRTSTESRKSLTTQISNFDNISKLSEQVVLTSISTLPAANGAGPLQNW
The experiment is described as follows: Human OX2R IP1 assay. It is filed as cell-based. Conditions: T-Rex CHO cells stably overexpressing human OX2R; IP1 accumulation, 1 hr at 37 degrees C; mean EC50. Here is the method: T-Rex CHO cells stably overexpressing the human orexin-2 receptor (OX2R) were induced overnight with 1 μg/mL of doxycycline in a T225 flask. 24 hours post induction, cells were lifted with accutase and plated into a 384-well proxy plate at 30,000 cells/well. Cells were then treated with different test compounds in 1× stimulation buffer containing 10 mM Hepes, 1 mM CaCl2, 0.5 mM MgCl2, 4.2 mM KCl, 146 mM NaCl, 5.5 mM glucose, and 50 mM LiCl, pH 7.4, for 1 hr at 37 degrees C. Following incubation, the reaction was terminated by the addition of detection mix, which is composed of IP1-d2 and anti-IP1-cryptate diluted in lysis buffer as well as 1× stimulation buffer. The plates were allowed to incubate for 1 hour at room temperature and were then read in the EnVision® multimode plate reader, measuring inositol phosphate levels.
Cisbio IP1 is a cell-based functional assay quantifying the accumulation of inositol monophosphate (IP), a metabolite released as a result of orexin 2 receptor activation through the phospholipase C-Gq signaling pathway. This is a competitive immunoassay in which the IP1 produced by the cells upon receptor activation competes with the IP1 analog coupled to the d2 fluorophore (acceptor) for binding to an anti-IP1 monoclonal antibody labeled with Eu cryptate (donor). The measured HTRF-FRET based signal is inversely proportional to the IP1 concentration produced.
The EC50 values reported in Table 2 were obtained according to the human OX2R IP1 assay described above. Data are the mean EC50 values±S.E.M.

Compound `Cn1ncc2ccc(C3CCC(OC[C@@H]4CN(c5ccccn5)CC[C@@H]4NS(C)(=O)=O)CC3)cc21` (stereo partly shown) [Compound 66] gave a 50% effective concentration (EC50) above 10 nM.

The values above are taken from US20250230141A1, “Substituted Fused Bicyclic Compounds and Related Methods of Treatment” (Alkermes, Inc., priority 2022, published 2025).
